From the supplement of paper PMC11061612

Legend:
[1] = system: MFE-296 (Endometrial Carcinoma); assay: combination Emax (second highest fraction inhibited in the dose matrix, 72 h); higher = more inhibition; extreme values may be limits of the assay
Summary of the method: (§1)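 After 24 hours at 37°C and 5% CO2 in 1536-well plates, cells in DMEM/F12 or RPMI plus 10% FBS received two-drug dose matrices for 72 hours. Viability came from CellTiter-Glo 2.0 luminescence and was scaled as inhibition, anchored at 0 by vehicle wells and at 1 by blank wells. Combination Emax is taken as the second-highest inhibition in the matrix, and Bliss excess as the observed combination effect less EA + EB − EA·EB, with EA and EB the single-agent effects.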

[2] = system: EC-GI-10 (Esophageal Squamous Cell Carcinoma); assay: as above
Summary of the method: as §1

[3] = system: SNU-5 (Gastric Carcinoma); assay: as above
Summary of the method: as §1

NOS-1 (Osteosarcoma) = assay: as above
Summary of the method: as §1

[4] = system: COLO-205 (Colorectal Carcinoma); assay: as above
Summary of the method: as §1

[5] = system: LS-180 (Colorectal Carcinoma); assay: as above
Summary of the method: as §1

AGS (Gastric Carcinoma) [6] = assay: as above
Summary of the method: as §1

[7] = system: KP-1N (Pancreatic Carcinoma); assay: as above
Summary of the method: as §1

[8] = system: Calu-3 (Lung Adenocarcinoma); assay: as above
Summary of the method: as §1

[9] = system: MDA-MB-361 (Breast Carcinoma); assay: as above
Summary of the method: as §1

[10] = system: TE-15 (Esophageal Squamous Cell Carcinoma); assay: as above
Summary of the method: as §1

[11] = system: HuP-T4 (Pancreatic Carcinoma); assay: as above
Summary of the method: as §1

[12] = system: LU-135 (Small Cell Lung Carcinoma); assay: as above
Summary of the method: as §1

[13] = system: B-CPAP (Thyroid Gland Carcinoma); assay: as above
Summary of the method: as §1

[14] = system: MFE-296 (Endometrial Carcinoma); assay: Bliss excess, mean over the matrix (fraction); higher = more synergy
Summary of the method: as §1

[15] = system: TE-9 (Esophageal Squamous Cell Carcinoma); assay: as above
Summary of the method: as §1

KELLY (Neuroblastoma) = assay: as above
Summary of the method: as §1

AGS (Gastric Carcinoma) [16] = assay: as above
Summary of the method: as §1

[17] = system: MDA-MB-361 (Breast Carcinoma); assay: as above
Summary of the method: as §1

[18] = system: SK-ES-1 (Ewing's Sarcoma); assay: as above
Summary of the method: as §1
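For Bliss excess, mean over the matrix in this document: after 72 h of two-drug dosing.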

Row | SMILES | combination Emax [1] | combination Emax [2] | combination Emax [3] | combination Emax (NOS-1 (Osteosarcoma)) | combination Emax [4] | combination Emax [5] | combination Emax (AGS (Gastric Carcinoma) [6]) | combination Emax [7] | combination Emax [8] | combination Emax [9] | combination Emax [10] | combination Emax [11] | combination Emax [12] | combination Emax [13] | Bliss excess [14] | Bliss excess [15] | Bliss excess (KELLY (Neuroblastoma)) | Bliss excess (AGS (Gastric Carcinoma) [16]) | Bliss excess [17] | Bliss excess [18]
1 | CN(C)CCCOc1ccc(-c2ccc3ncc4c(c3c2)n(C2CCOCC2)c(=O)n4C)cn1 [AZD0156] + C=CCn1c(=O)c2cnc(Nc3ccc(N4CCN(C)CC4)cc3)nc2n1-c1cccc(C(C)(C)O)n1 [AZD1775] (first compound max 1 µM, partner max 1 µM) | 0.258 | 0.849 | 0.56 | 0.247 | 0.341 | 0.452 | 0.478 | 0.471 | 0.0731 | 0.858 | 0.454 | 0.217 | 0.644 | 0.357 | -0.0553 | -0.0422 | -0.0002 | -0.0517 | -0.006 | 0.0045
2 | CN(C)CCCOc1ccc(-c2ccc3ncc4c(c3c2)n(C2CCOCC2)c(=O)n4C)cn1 [AZD0156] + CCN(CCO)CCCOc1ccc2c(Nc3cc(CC(=O)Nc4cccc(F)c4)[nH]n3)ncnc2c1 [AZD2811] (first compound max 1 µM, 7x7, partner max 1 µM) | 0.0192 | 0.471 | 0.162 | 0.119 | 0.854 | 0.261 | 0.238 | 0.293 | 0.061 | 0.456 | 0.0454 | 0.244 | 0.925 | 0.189 | -0.0356 | -0.0214 | 0.0099 | -0.0047 | -0.0078 | -0.0011
3 | CN(C)CCCOc1ccc(-c2ccc3ncc4c(c3c2)n(C2CCOCC2)c(=O)n4C)cn1 [AZD0156] + C[C@@H]1COCCN1C2=NC(=NC(=C2)C3(CC3)[S@](=N)(=O)C)C4=C5C=CNC5=NC=C4 [AZD6738] (first compound max 1 µM, 7x7, partner max 10 µM) | 0.388 | 0.724 | 0.882 | 0.255 | 0.247 | 0.694 | 0.706 | 0.399 | 0.297 | 0.9 | 0.734 | 0.46 | 0.599 | 0.479 | -0.0485 | -0.0034 | 0.0044 | 0.0232 | 0.0366 | 0.0267
4 | CN(C)CCCOc1ccc(-c2ccc3ncc4c(c3c2)n(C2CCOCC2)c(=O)n4C)cn1 [AZD0156] + O=C(c1cc(Cc2n[nH]c(=O)c3ccccc23)ccc1F)N1CCN(C(=O)C2CC2)CC1 [Olaparib] (first compound max 3 µM, partner max 3 µM) | 0.228 | 0.436 | 0.439 | 0.328 | 0.365 | 0.24 | 0.392 | 0.277 | 0.184 | 0.384 | 0.253 | 0.289 | 0.426 | 0.34 | -0.0153 | 0.109 | 0.0009 | 0.0736 | 0.0254 | 0.393
5 | C=CCn1c(=O)c2cnc(Nc3ccc(N4CCN(C)CC4)cc3)nc2n1-c1cccc(C(C)(C)O)n1 [AZD1775] + C1CN(CCC1(C(=O)N[C@@H](CCO)C2=CC=C(C=C2)Cl)N)C3=NC=NC4=C3C=CN4 [Capivasertib] (first compound max 3 µM, partner max 3 µM) | 0.561 | 0.965 | 0.7 | 0.606 | 0.832 | 0.734 | 0.976 | 0.633 | 0.466 | 0.851 | 0.724 | 0.691 | 0.669 | 0.815 | -0.0091 | -0.002 | -0.0393 | 0.0159 | -0.0156 | 0.0726
6 | C=CCn1c(=O)c2cnc(Nc3ccc(N4CCN(C)CC4)cc3)nc2n1-c1cccc(C(C)(C)O)n1 [AZD1775] + C[C@@H]1COCCN1C2=NC(=NC(=C2)C3(CC3)[S@](=N)(=O)C)C4=C5C=CNC5=NC=C4 [AZD6738] (first compound max 1 µM, partner max 10 µM) | 0.659 | 0.943 | 0.934 | 0.622 | 0.863 | 0.809 | 0.848 | 0.397 | 0.301 | 0.922 | 0.761 | 0.521 | 0.751 | 0.811 | 0.0428 | 0.0638 | -0.0161 | 0.113 | -0.0113 | 0.0071
